According to patent US20240216589A1, “DRUG DELIVERY COMPOSITIONS AND METHODS OF CONTROLLING DRUG DELIVERY RATES OF SUBCUTANEOUS SENSORS” (ABBOTT DIABETIS CARE INC., priority 2022, published 2024):

Assay: Dex solubility in the polyvinylpyridine-ethanol:water (95:5 by volume) solution
Format: physicochemical
Protocol: FIG. 33 illustrates the Dex solubility in the polyvinylpyridine-ethanol:water (95:5 by volume) solution according to certain embodiments of the present disclosure. The solubility of Dex in the PVP-ethanol:water solution was measured. For the solutions containing 0 wt %-30 wt % of Dex relative to the weight amount of PVP polymer, after the solutions were vortexed/sonicated within 15 minutes, the solutions became clear. […] Therefore, the drug delivery composition can include up to 40 wt % of Dex relative to the amount of copolymer to make a clear drug delivery composition.

solution clarity (0 wt %-30 wt % of Dex relative to PVP, vortexed/sonicated within 15 minutes): became clear | solution clarity (40 wt % of Dex relative to PVP, mixing overnight on the nutator): became clear after mixing overnight | solution clarity (50 wt % of Dex relative to PVP, mixing overnight on the nutator): did not become clear | maximum Dex relative to the amount of copolymer to make a clear drug delivery composition (ethanol:water 95:5 by volume): up to 40 wt %
Structure (SMILES): C[C@@H]1C[C@H]2[C@@H]3CCC4=CC(=O)C=C[C@]4(C)[C@@]3(F)[C@@H](O)C[C@]2(C)[C@@]1(O)C(=O)CO [Dex, dexamethasone]
